Key:
[1] = system: Human immunodeficiency virus 1; test: Antiviral activity against wild type HIV-1 IIIB infected in human MT4 cells assessed as protection against virus-induced cytopathic effect incubated for 5 days by MTT assay; format: functional, organism-based; conditions: Human immunodeficiency virus 1, IIIB, MT4, 120 h
[2] = system: Human immunodeficiency virus 1; test: Antiviral activity against HIV-1 RES056 harboring RT K103N/Y181C double mutant infected in human MT4 cells assessed as protection against virus-induced cytopathic effect incubated for 5 days by MTT assay; format: functional, organism-based; conditions: Human immunodeficiency virus 1, RES056, MT4, 120 h
[3] = Cytotoxicity against human MT4 cells assessed as reduction in cell viability measured after 5 days by MTT assay; format: toxicity, cell-based; conditions: time 5 day
[4] = Selectivity index, ratio of CC50 for cytotoxicity against human MT4 cells to EC50 for antiviral activity against wild type HIV-1 IIIB infected in human MT4 cells; format: toxicity, cell-based; conditions: read-out: Ratio CC50/EC50
[5] = Selectivity index, ratio of CC50 for cytotoxicity against human MT4 cells to EC50 for antiviral activity against HIV-1 RES056 harboring RT K103N/Y181C double mutant infected in human MT4 cells; format: toxicity, cell-based; conditions: read-out: Ratio CC50/EC50

| SMILES | EC50 [1] | EC50 [2] | CC50 at 120 h [3] | selectivity ratio [4] | selectivity ratio [5] |
| --- | --- | --- | --- | --- | --- |
| Cc1cc(C#N)cc(C)c1Oc1nc(NC2CCN(c3ccc(NS(N)(=O)=O)cc3)CC2)nc2sccc12 | 0.0129 µM | 0.633 µM | 24.9 µM | 1930 | 39 |
| Cc1cc(/C=C/C#N)cc(C)c1Oc1nc(NC2CCN(c3c(F)cc([N+](=O)[O-])cc3F)CC2)nc2sccc12 | 0.068 µM | 27.4 µM | > 222 µM | > 3260 | > 8 |
| Cc1cc(/C=C/C#N)cc(C)c1Oc1nc(Nc2ccc(C#N)c(F)c2)nc2cc[nH]c12 | 4.47 µM | 45.8 µM | 188 µM | 42 | 4.1 |
| Cc1cc(/C=C/C#N)cc(C)c1Oc1nc(NC2CCN(c3c(F)cc(N)cc3F)CC2)nc2ccsc12 | 0.032 µM | 1.57 µM | 7.88 µM | 246 | 5 |
| Cc1cc(/C=C/C#N)cc(C)c1Oc1nc(NC2CCN(c3ccc([N+](=O)[O-])cc3F)CC2)nc2sccc12 | 0.0296 µM | 1.35 µM | > 229 µM | > 7740 | > 169 |
| N#C/C=C/c1cc(F)c(Oc2nc(Nc3ccc(C#N)c(F)c3)nc3ccsc23)c(F)c1 | 0.109 µM | 6.71 µM | 96 µM | 878 | 14 |
| Cc1cc(/C=C/C#N)cc(C)c1Oc1nc(NC2CCN(c3c(F)cc(NS(N)(=O)=O)cc3F)CC2)nc2ccsc12 | 0.0371 µM | 1.94 µM | 20 µM | 539 | 10 |
| Cc1cc(/C=C/C#N)cc(C)c1Oc1nc(NC2CCN(c3c(F)cc([N+](=O)[O-])cc3F)CC2)nc2ccsc12 | 0.125 µM | 7.67 µM | 99.5 µM | 794 | 13 |
| Cc1cc(C#N)cc(C)c1Oc1nc(NC2CCN(c3ccc([N+](=O)[O-])cc3F)CC2)nc2ccsc12 | 0.0321 µM | > 30.3 µM | 740 µM | 23100 | < 1 |
| Cc1cc(-c2ccc(F)cc2)cc(C)c1Oc1nc(Nc2ccc(C#N)c(F)c2)nc2ccsc12 | 0.695 µM | 8.6 µM | 97.3 µM | 140 | 11 |
| N#C/C=C/c1cc(F)c(Oc2nc(Nc3ccc(C#N)nc3)nc3cc[nH]c23)c(F)c1 | 0.147 µM | > 29 µM | 29 µM | 197 | < 1 |
| Cc1cc(/C=C/C#N)cc(C)c1Oc1nc(Nc2ccc(C#N)nc2)nc2cc[nH]c12 | 1.63 µM | > 7.94 µM | 7.94 µM | 5 | < 1 |
| Cc1cc(C#N)cc(C)c1Oc1nc(NC2CCN(c3ccc(N)cc3)CC2)nc2sccc12 | 0.0359 µM | 1.74 µM | 31 µM | 864 | 18 |
| Cc1cc(C#N)cc(C)c1Oc1nc(NC2CCN(c3ccc([N+](=O)[O-])cc3)CC2)nc2sccc12 | 0.0206 µM | 53.8 µM | > 249 µM | > 12100 | > 5 |
| Cc1cc(C#N)cc(C)c1Oc1nc(NC2CCN(c3ccc(N)cc3F)CC2)nc2ccsc12 | 0.0404 µM | > 12.2 µM | 12.1 µM | 300 | < 1 |
| Cc1cc(-c2ccc(F)cc2)cc(C)c1Oc1nc(Nc2ccc(C#N)nc2)nc2ccsc12 | 0.451 µM | > 6.13 µM | 6.13 µM | 14 | < 1 |

| SMILES | EC50 [1] | EC50 [2] | CC50 at 120 h [3] | selectivity ratio [4] | selectivity ratio [5] |
| --- | --- | --- | --- | --- | --- |
| Cc1cc(/C=C/C#N)cc(C)c1Oc1nc(NC2CCN(c3ccc([N+](=O)[O-])cc3F)CC2)nc2ccsc12 | 0.14 µM | > 14.2 µM | 14.2 µM | 101 | < 1 |
| Cc1cc(C#N)cc(C)c1Oc1nc(NC2CCN(c3ccc([N+](=O)[O-])cc3F)CC2)nc2sccc12 | 0.04 µM | > 37.4 µM | 37.4 µM | 935 | < 1 |
| Cc1cc(C#N)cc(C)c1Oc1nc(NC2CCN(c3c(F)cc([N+](=O)[O-])cc3F)CC2)nc2ccsc12 | 0.057 µM | > 30.3 µM | 740 µM | 12900 | < 1 |
| Cc1cc(C#N)cc(C)c1Oc1nc(NC2CCN(c3c(F)cc(N)cc3F)CC2)nc2sccc12 | 0.0325 µM | > 5.45 µM | 5.45 µM | 168 | < 1 |
| N#C/C=C/c1cc(F)c(Oc2nc(Nc3ccc(C#N)c(F)c3)nc3sccc23)c(F)c1 | 0.0524 µM | > 117 µM | 117 µM | 2240 | < 1 |
| Cc1cc(/C=C/C#N)cc(C)c1Oc1nc(NC2CCN(c3ccc(N)cc3F)CC2)nc2ccsc12 | 0.0313 µM | 0.876 µM | 23 µM | 735 | 26 |
| N#C/C=C/c1cc(F)c(Oc2nc(Nc3ccc(C#N)c(F)c3)nc3cc[nH]c23)c(F)c1 | 0.038 µM | 0.63 µM | 10.2 µM | 268 | 16 |
| Cc1cc(-c2ccc(C#N)cc2)cc(C)c1Oc1nc(Nc2ccc(C#N)c(F)c2)nc2sccc12 | 0.0847 µM | 0.493 µM | > 254 µM | > 3010 | > 517 |
| Cc1cc(C#N)cc(C)c1Oc1nc(NC2CCN(c3c(F)cc(N)cc3F)CC2)nc2ccsc12 | 0.0374 µM | > 5.54 µM | 5.45 µM | 146 | < 1 |
| Cc1cc(-c2ccc(F)cc2)cc(C)c1Oc1nc(Nc2ccc(C#N)nc2)nc2sccc12 | 0.802 µM | > 2.23 µM | 2.23 µM | 3 | < 1 |
| N#C/C=C/c1cc(F)c(Oc2nc(Nc3ccc(C#N)nc3)nc3c2COC3)c(F)c1 | 0.00577 µM | 12.2 µM | 243 µM | 42100 | 20 |
| Cc1cc(C#N)cc(C)c1Oc1nc(NC2CCN(c3c(F)cc(NS(N)(=O)=O)cc3F)CC2)nc2sccc12 | 0.0123 µM | > 3.96 µM | 3.96 µM | 322 | < 1 |
| Cc1cc(C#N)cc(C)c1Oc1nc(NC2CCN(c3c(F)cc(NS(N)(=O)=O)cc3F)CC2)nc2ccsc12 | 0.0353 µM | 7.51 µM | 12.6 µM | 357 | 2 |
| Cc1cc(/C=C/C#N)cc(C)c1Oc1nc(NC2CCN(c3ccc(NS(N)(=O)=O)cc3F)CC2)nc2ccsc12 | 0.00746 µM | 0.832 µM | 21.7 µM | 2910 | 26 |
| Cc1cc(-c2ccc(C#N)cc2)cc(C)c1Oc1nc(Nc2ccc(C#N)nc2)nc2ccsc12 | 0.00762 µM | 0.381 µM | 214 µM | 28100 | 563 |
